Measurements published in PubChem BioAssay AID1919008 (Molecular Pharmacology Branch, DTP, NCI, 2023).

System: DMS-114 complex spheroids with HUVEC/MSC, growth % test/control
Assay: Anticancer human tumor DMS-114 cell line growth inhibition [AhR];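 also: spheroids exposed to agents for 7 days before readout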;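 as to viability, T/C: 100% = DMSO vehicle control wells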
Details: for IC50: curve of first compound; for viability, T/C: stronger effect = lower value
Summary of the method: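 Spheroids combined tumor cells with HUVEC endothelial cells and human MSCs as stroma. AhR antagonists were paired with standard or investigational drugs, each dosed in half-log steps down from near clinical Cmax, or from 10 microM where Cmax was unknown.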

[1] = second compound 0.1 µM, first compound 0.0316 µM
[2] = second compound 0.1 µM, first compound 0.1 µM
[3] = second compound 0.1 µM, first compound 0.316 µM
[4] = second compound 0.1 µM, first compound 1 µM
[5] = second compound 0.316 µM, first compound 0.0316 µM
[6] = second compound 0.316 µM, first compound 0.1 µM
[7] = second compound 0.316 µM, first compound 0.316 µM
[8] = second compound 0.316 µM, first compound 1 µM
[9] = second compound 1 µM, first compound 0.0316 µM
[10] = second compound 1 µM, first compound 0.1 µM
[11] = second compound 1 µM, first compound 0.316 µM
[12] = second compound 1 µM, first compound 1 µM
[13] = second compound 3.16 µM, first compound 0.0316 µM
[14] = second compound 3.16 µM, first compound 0.1 µM
[15] = second compound 3.16 µM, first compound 0.316 µM
[16] = second compound 3.16 µM, first compound 1 µM
[17] = second compound 10 µM, first compound 0.0316 µM
[18] = second compound 10 µM, first compound 0.1 µM
[19] = second compound 10 µM, first compound 0.316 µM
[20] = second compound 10 µM, first compound 1 µM

Structure (SMILES) | IC50 (second compound 0.1 µM) [nM] | IC50 (second compound 0.316 µM) [nM] | IC50 (second compound 1 µM) [nM] | IC50 (second compound 3.16 µM) [nM] | IC50 (second compound 10 µM) [nM] | viability, T/C [1] [%] | viability, T/C [2] [%] | viability, T/C [3] [%] | viability, T/C [4] [%] | viability, T/C [5] [%] | viability, T/C [6] [%] | viability, T/C [7] [%] | viability, T/C [8] [%] | viability, T/C [9] [%] | viability, T/C [10] [%] | viability, T/C [11] [%] | viability, T/C [12] [%] | viability, T/C [13] [%] | viability, T/C [14] [%] | viability, T/C [15] [%] | also measured
CC1COCCN1c1cc(-c2ccnn2C)c2ccnc(-c3ccn[nH]3)c2n1 (stereo not given) + Cc1cncc(-c2nc(NCCc3c[nH]c4ccccc34)c3ncn(C(C)C)c3n2)c1 | 38 | 51 | 41.5 | 41.8 | < 3.16 | 51 | 29.9 | 19.6 | 12.8 | 61.8 | 31.4 | 19.8 | 12 | 55.3 | 27.9 | 23.6 | 11.7 | 55.8 | 26.7 | 17 | viability, T/C (second compound 0.1 µM, first compound 0.00316 µM): 90.6%; viability, T/C (second compound 0.1 µM, first compound 0.01 µM): 85.9%; viability, T/C (second compound 0.316 µM, first compound 0.00316 µM): 97.1%; viability, T/C (second compound 0.316 µM, first compound 0.01 µM): 93.7%; viability, T/C (second compound 1 µM, first compound 0.00316 µM): 87.5%; viability, T/C (second compound 1 µM, first compound 0.01 µM): 92.6%; viability, T/C (second compound 3.16 µM, first compound 0.00316 µM): 83.9%; viability, T/C (second compound 3.16 µM, first compound 0.01 µM): 85.9%; viability, T/C [16]: 11.2%; viability, T/C (second compound 10 µM, first compound 0.00316 µM): 28.8%; viability, T/C (second compound 10 µM, first compound 0.01 µM): 29.6%; viability, T/C [17]: 22.6%; viability, T/C [18]: 15.5%; viability, T/C [19]: 9.12%; viability, T/C [20]: 7.26%
CC1COCCN1c1cc(C2(S(C)(=N)=O)CC2)nc(-c2ccnc3[nH]ccc23)n1 (stereo not given) + Cc1cncc(-c2nc(NCCc3c[nH]c4ccccc34)c3ncn(C(C)C)c3n2)c1 | 6130 | 5180 | 5900 | 4840 | 933 | 98.5 | 96 | 119 | 115 | 105 | 111 | 100 | 99.9 | 122 | 119 | 114 | 87.7 | 98 | 85.7 | 93.5 | viability, T/C (second compound 0.1 µM, first compound 3.16 µM): 81.9%; viability, T/C (second compound 0.1 µM, first compound 10 µM): 26.5%; viability, T/C (second compound 0.316 µM, first compound 3.16 µM): 64.1%; viability, T/C (second compound 0.316 µM, first compound 10 µM): 31%; viability, T/C (second compound 1 µM, first compound 3.16 µM): 77.3%; viability, T/C (second compound 1 µM, first compound 10 µM): 30.2%; viability, T/C [16]: 81.1%; viability, T/C (second compound 3.16 µM, first compound 3.16 µM): 64.3%; viability, T/C (second compound 3.16 µM, first compound 10 µM): 26%; viability, T/C [17]: 53%; viability, T/C [18]: 52.3%; viability, T/C [19]: 67.7%; viability, T/C [20]: 41.7%; viability, T/C (second compound 10 µM, first compound 3.16 µM): 39.8%; viability, T/C (second compound 10 µM, first compound 10 µM): 19.3%
